Assay results as given in US12344599B2, “Prodigiosin analogs and methods of use” (Institute For Cancer Research, priority 2016, dated 2025).

Assays:
FaDu = assay: CellTiterGlo cell viability assay, FaDu; assay type: cell-based; details: Homo sapiens, head & neck squamous cell carcinoma, p53 R248L, 72 hours
Protocol: (§1) • 1) Cell lines: HT29, SW480, DLD-1, HCT116, and p53-null HCT116 cells, H1975, MDA-MD-231, U251, FaDu, CAL-27, PANC-1, Aspc-1, and MRC5 were obtained from the ATCC and cultured as recommended. Cells were regularly authenticated by bioluminescence, growth, and morphologic observation. The cells were routinely examined for Mycoplasma and all cell lines underwent STR authentication. • 2) Western blotting: After treatment, protein lysates were collected for Western blot analysis. 15 μg of protein was used for SDS-PAGE. After primary and secondary antibody incubations, the signal was detected by chemiluminescent detection kit, imaged by Syngene (Imgen Technologies). […] The cell viability was assessed by CellTiterGlo bioluminescent cell proliferation assay (Promega), following the manufacturer's protocol. Bioluminescence imaging was measured using the IVIS imager. Percentage of cell viability (mean±SEM) at each dose was calculated against the respective DMSO control. The IC50 values were determined from the sigmoidal dose-response curves using GraphPad Prims4. • 4) Caspase activity assay: Cells were seeded in 96-well plate (1×10^4 cells/well). […] The caspase 3/7 activity was assessed by Caspase-Glo® 3/7 Assay kit (Promega), following the manufacturer's protocol. Bioluminescence imaging was measured using the IVIS imager. […]

c-Myc and PUMA = assay: Western blot of c-Myc, PUMA and p53 target genes; assay type: cell-based, human; details: colorectal cancer cell lines and Jurkat cells
Protocol: After treatment, protein lysates were collected for Western blot analysis. A total of […] of protein was used for SDS-PAGE. After primary and secondary antibody incubations, the signal was detected by a chemiluminescence detection kit, imaged by Syngene (Imgen Technologies). Antibodies for PUMA (for IHC), p53 (Santa Cruz Biotechnology), caspase 8, cleaved caspase 8, caspase 9, caspase 3, cleavage PARP, eIF2α, p-eIF2α (Ser51), CHOP, ATF4, DR5, FOXO3a, p-FOXO3a (Ser253), NF-κB p65, p-NF-κB p65 (Ser536), c-Jun, p-c-Jun (Ser63), JNK, p-JNK (Thr183/Tyr185), PUMA (for WB), c-Myc, phosphor-S62-cMyc (Cell Signaling Technology), Noxa, p21 (Calbiochem), p73 (Bethyl laboratories Inc), Ran (BD Biosciences), […] (Sigma).
To test this hypothesis, two ERK1/2 inhibitors that act by different mechanisms were used. U0126 is an indirect ERK1/2 inhibitor. It inhibits MEK1 kinase and blocks the phosphorylation of ERK1/2. […] Consistent with a previous publication (Choi et al., Genes Dev, 2010, 24, 1236-1241), SCH772984 can inhibit ERK1/2 function after ERK1/2 is phosphorylated (FIG. 73), and the same is observed for PG3-Oc (FIG. 73).

MDA-MB-231 = assay: CellTiterGlo cell viability assay, MDA-MB-231; assay type: cell-based; details: Homo sapiens; MDA-MB-231, breast cancer, p53 R280K, 72 hours
Protocol: as §1

panel of CRC cell lines = assay: Colony formation assay (long-term cell proliferation); assay type: cell-based, human; details: low dose
Protocol: Five hundred cells were seeded per well in 6-well plates and treated with different concentrations of compounds for 24 hours, then, cells were cultured with drug-free complete medium for 2 weeks with fresh medium changed every 7 days. Cells were fixed with 10% formalin and stained with 0.05% crystal violet at the end of 2 weeks period of cell culture (Franken et al., Nat. Protoc., 2006, 1, 2315-9).

[1] = system: SW480, DLD1 and p53-null cell line HCT116; assay: CellTiter-Glo luminescent cell viability assay (Example 1); assay type: cell-based, human
Protocol: SW480, DLD-1, DLD1-p73KD, HCT116, and p53-null HCT116, MRC5 and Wi38 cells were seeded at 5,000 cells per well on 96-well plates. […] Then, cells were mixed with an equal volume of CellTiter-Glo® reagents (Promega), following the manufacturer's protocol, and bioluminescence imaging was measured using the IVIS imager.

HT29 = assay: CellTiterGlo cell viability assay, HT29; assay type: cell-based; details: Homo sapiens, HT-29; HT29, colorectal cancer, p53 R273H, 72 hours
Protocol: as §1

HT29 cells = assay: qRT-PCR of p53 target gene mRNA, HT29; assay type: cell-based, human; details: HT29, 1 μM, 8 and 19 hours post-treatment
Protocol: as §1

## CCCCCCCCOC(=O)CCc1c(C)[nH]c(/C=C2\N=C(c3ccc[nH]3)C=C2OC)c1C [PG3-Oc, Octyl (Z)-3-(5-((4′-methoxy-1H,5′H-[2,2′-bipyrrol]-5′-ylidene)methyl)-2,4-dimethyl-1H-pyrrol-3-yl)propanoate]
FaDu
  IC50: 66 nM
c-Myc and PUMA
  effect on c-Myc: potently downregulated c-Myc
MDA-MB-231
  IC50: 242 nM
Panel of CRC cell lines
  inhibition in long-term cell proliferation: Over 90%
[1]; SW480, DLD1, p53-null HCT116
  induction of cell death: potently induced cell death
[1]; SW480, DLD1, p53-null HCT116, 72 hours
  IC50 values: within nanomolar range
HT29
  IC50: 66.3 nM
HT29 cells
  induction of p21 mRNA: Over 3 fold
